We go through 13 compounds from ChEMBL document CHEMBL5579853, “Recent progress in the development of hypoxia-inducible factor 2α (HIF-2α) modulators: Inhibitors, agonists, and degraders (2009-2024)” (Eur J Med Chem, 2024).

SMILES strings stand for the structures.

For experiment [1], the target named is Endothelial PAS domain-containing protein 1 (Homo sapiens, UniProt Q99814). Briefly: Inhibition of HIF-2alpha (unknown origin).
A further experiment has as its system 786-0. Kind of experiment: cells. Particulars: Homo sapiens, 786-0, 72 h.
Experiment [2] has as its target T1, Vascular endothelial growth factor A, long form (Homo sapiens, UniProt P15692).
T1 sequence (P15692 whole entry): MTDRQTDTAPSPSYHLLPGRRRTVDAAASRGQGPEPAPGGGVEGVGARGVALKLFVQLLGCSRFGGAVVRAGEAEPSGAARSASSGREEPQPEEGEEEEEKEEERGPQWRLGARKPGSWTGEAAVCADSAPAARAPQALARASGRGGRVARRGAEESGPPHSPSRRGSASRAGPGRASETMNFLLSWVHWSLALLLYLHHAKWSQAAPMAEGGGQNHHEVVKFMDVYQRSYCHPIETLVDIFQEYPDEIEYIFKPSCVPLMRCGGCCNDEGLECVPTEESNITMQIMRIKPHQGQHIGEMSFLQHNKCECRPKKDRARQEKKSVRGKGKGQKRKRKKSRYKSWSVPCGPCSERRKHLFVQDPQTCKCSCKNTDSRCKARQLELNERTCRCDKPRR
Briefly: Inhibition of VEGF (unknown origin) by FRET based analysis.

Endothelial PAS domain-containing protein 1, sequence (Q99814 whole entry, the tested form may be a part): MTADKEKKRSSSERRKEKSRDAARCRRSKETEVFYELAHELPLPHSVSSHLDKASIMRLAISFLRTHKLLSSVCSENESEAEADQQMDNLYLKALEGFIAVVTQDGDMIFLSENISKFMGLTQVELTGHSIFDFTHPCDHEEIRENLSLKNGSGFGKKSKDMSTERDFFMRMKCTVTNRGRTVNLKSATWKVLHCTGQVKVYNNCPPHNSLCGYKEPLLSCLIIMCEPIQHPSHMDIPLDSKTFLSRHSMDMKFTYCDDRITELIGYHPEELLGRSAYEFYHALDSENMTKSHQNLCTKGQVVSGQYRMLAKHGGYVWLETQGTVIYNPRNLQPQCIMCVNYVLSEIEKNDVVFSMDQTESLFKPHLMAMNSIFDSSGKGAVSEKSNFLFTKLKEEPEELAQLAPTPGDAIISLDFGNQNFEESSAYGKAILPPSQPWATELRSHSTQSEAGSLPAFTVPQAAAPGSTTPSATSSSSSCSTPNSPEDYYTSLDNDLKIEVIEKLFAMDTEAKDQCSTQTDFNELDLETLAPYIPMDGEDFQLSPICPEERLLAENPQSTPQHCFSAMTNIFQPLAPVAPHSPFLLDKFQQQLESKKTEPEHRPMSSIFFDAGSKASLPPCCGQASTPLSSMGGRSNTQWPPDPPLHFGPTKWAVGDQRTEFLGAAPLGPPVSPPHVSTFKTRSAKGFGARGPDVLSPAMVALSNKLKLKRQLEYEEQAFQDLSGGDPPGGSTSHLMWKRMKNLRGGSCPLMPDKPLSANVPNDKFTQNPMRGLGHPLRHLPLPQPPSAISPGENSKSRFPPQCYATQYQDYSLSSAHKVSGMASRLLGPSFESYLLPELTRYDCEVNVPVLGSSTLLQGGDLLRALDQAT
Description for 786-0: Antiproliferative activity against human 786-0 cells assessed as inhibition of cell growth incubated for 72 hrs by celltiter-glo assay

In the case of `OC1c2c(C(F)(F)F)cn(-c3cncc(F)c3)c2CC(F)C1F` (stereo not drawn), the EC50 in experiment [1] turned out to be 500 nM.

For `CNC(=O)c1ccn2c(C(F)F)cc(-c3ccc(C)c(C)c3)nc12`, the IC50 in the experiment with 786-0 was < 5000 nM. In experiment [1], `O[C@H]1c2c(C(F)(F)F)ncc(OC3CC(F)(F)C3)c2[C@@H](F)[C@H]1F` had an EC50 of 21 nM. Same read-out and setting: as for `O[C@@H]1CCc2c(Oc3cc(F)cc(F)c3)ncnc21`, the figure is 11 nM; as for `CP(C)(=O)c1ccc(Oc2cc(F)cc(F)c2)c2c1C(O)C(F)(F)C2` (stereo not drawn), 29 nM.

On to `CC[C@@H](Nc1cccc(F)c1)C(=O)N/N=C/c1cccc(C)c1O`, for which half-maximal inhibition with 786-0 (IC50) was put at 5000 nM. This counts as single-digit micromolar. `Fc1c(C(F)(F)F)ncc2c1SC[C@H](F)[C@@]21CN2C=C(C(F)(F)F)C(OC(F)F)=CC2=N1` yielded an IC50 in experiment [2] of 15 nM. On to `N#Cc1cc(F)cc(Oc2ccc(S(=O)(=O)C(F)(F)F)c3[nH]ncc23)c1`, for which the EC50 in experiment [1] is < 100 nM. In experiment [1], `CS(=O)(=O)c1ccc(N2CCCc3ccccc32)c2c1[C@H](O)[C@H](F)C2` yielded an EC50 of 340 nM. In other words, the sub-micromolar range. Regarding `CS(=O)(=O)c1ccc([C@H]2CCCc3cc(F)cc(C#N)c32)c2c1[C@H](O)[C@H](F)[C@@H]2F`, the EC50 in experiment [1] is < 100 nM. For the compound `FC(F)OC1=CC2=N[C@]3(C[C@H]4C[C@H]4c4c3ccnc4Cl)CN2C=C1C(F)(F)F`, the concentration for half-maximal inhibition (IC50) in experiment [2] came out at 50 nM.

Regarding `N#Cc1cc(F)cc(Oc2ccc3c4c2C(F)CC4(O)C(F)(F)S3(=O)=O)c1` (stereo not drawn), in experiment [1], the EC50 was < 50 nM.

With `CS(=O)(=O)c1sc(N2CCCc3ccccc32)c2c1[C@H](O)[C@H](F)C2`, the midpoint of the response in experiment [1], the EC50, lay at 2200 nM. That is a single-digit micromolar value.

By EC50 is commonly meant the concentration that produces a half-maximal response. Low readings indicate an effect from little substance, high ones a need for much substance. As a reminder, the IC50 is the concentration that gives 50% inhibition. Higher therefore signals weaker potency.
